Experimental data taken from publication PMC11071649, “Synthesis and Selective Anticancer Activity Evaluation of 2-phenylacrylonitrile Derivatives as Tubulin Inhibitors” (Current Medicinal Chemistry, 2024).
“Also recorded” adds a separate entry of the source. Marks after values point to notes of the source that are not given here.

How the values were obtained:
MCF-7 breast cancer cell = assay: MTT anti-proliferative assay, MCF-7; type: cell-based, human; settings: for IC50: Homo sapiens, MCF7, MTT, 48 h
Outline: (§1)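 MTT read-out of net cell-growth inhibition after compound exposure of cells seeded in 96-well plates. Lines were ATCC-sourced and grown in DMEM plus FBS.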

HeLa cancer cells = test system: HeLa cancer cells; parameters: method as in PMID 27887843; settings: Fig. 1; cited from earlier work
[1] = test system: diffuse large B-cell lymphoma SU-DHL-10 cell; assay: MTT anti-proliferative assay, SU-DHL-10; type: cell-based, human; settings: for IC50: Homo sapiens, SU-DHL10, MTT, 48 h, read-out: IC50 SU-DHL-10
Outline: as §1

[2] = test system: HeLa cervical cancer cell; assay: MTT anti-proliferative assay, HeLa; type: cell-based, human; settings: for IC50: Homo sapiens, HeLa, MTT, 48 h
Outline: as §1

[3] = test system: MGC-803 late stage differentiation gastric cancer cell; assay: MTT anti-proliferative assay, MGC-803; type: cell-based, human; settings: for IC50: Homo sapiens, MGC-803, MTT, 48 h
Outline: as §1

HCT116 cells = assay: Apoptosis by flow cytometry (annexin V-FITC/PI), HCT116; type: cell-based, human; settings: 0.1 μM, 12 h
Description: (§2) pH of the solution was adjusted to 2 with HCl solution (1 M), and the precipitate was subsequently collected by suction filtra- […]
(§3) in DMF (40 mL) at 0°C. After 2 h reaction, the mixture was poured into 300 mL ice water and mixed completely. Then adjust […]
(§4) mL) at 0°C, then after 15 min stirring, benzyl chloride (33 mmol) was added. The reaction mixture was moved to RT and al-lowed to continue, after which it was deemed essentially complete by TLC. Then the solution was removed and the mixture […]
(§5) 1.6. Cell lines and cell culture
(§6) MTT was purchased from Sigma-Aldrich Co. (St. Louis, MO, USA). The PI and Annexin V-FITC apoptosis detection kit were purchased from Invitrogen (Eugene, OR, USA). All human cell lines were used in this study. […]
(§7) the anti-proliferative activities were determined by MTT assay. […]
(§8) respectively. […] After 12 h, the cell detached, fixed, and analyzed the cell cycle by flow cytometry using a FACS Calibur flow cytometer with Cell Quest software (Becton-Dickinson, Franklin Lakes, NJ). […]
(§9) Apoptosis was detected using an apoptosis detecti5 on kit. […]
(§10) Vehicle group was treated with 0.1% DMSO. Following 12 h of incubation, cells were analyzed for apoptosis as previously described method, using a FACS Calibur flow cytometer with Cell Quest software (Becton-Dickinson, Franklin Lakes, NJ). […]
(§11) Quantitative cell migration was performed using 24-well Boyden chambers (Corning, NY, USA) as described. […]

MGC-803 cancer cells = test system: MGC-803 cancer cells; parameters: method as in PMID 29516624, PMID 30244610; settings: Fig. 1; cited from earlier work
[4] = test system: HCT116 colectal cancer cell; assay: MTT anti-proliferative assay, HCT116; type: cell-based, human; settings: for IC50: Homo sapiens, HCT-116, MTT, 48 h
Outline: as §1

Human β-tubulin (TUBB) [5] = molecular target: T1, Human β-tubulin (TUBB) (Homo sapiens, UniProt P07437+P68363); assay: Tubulin polymerization inhibition, ELISA kit, BEL-7402 cells; settings: Bel-7402, read-out: Tubulin % inhibition
T1 sequence (P07437 whole entry): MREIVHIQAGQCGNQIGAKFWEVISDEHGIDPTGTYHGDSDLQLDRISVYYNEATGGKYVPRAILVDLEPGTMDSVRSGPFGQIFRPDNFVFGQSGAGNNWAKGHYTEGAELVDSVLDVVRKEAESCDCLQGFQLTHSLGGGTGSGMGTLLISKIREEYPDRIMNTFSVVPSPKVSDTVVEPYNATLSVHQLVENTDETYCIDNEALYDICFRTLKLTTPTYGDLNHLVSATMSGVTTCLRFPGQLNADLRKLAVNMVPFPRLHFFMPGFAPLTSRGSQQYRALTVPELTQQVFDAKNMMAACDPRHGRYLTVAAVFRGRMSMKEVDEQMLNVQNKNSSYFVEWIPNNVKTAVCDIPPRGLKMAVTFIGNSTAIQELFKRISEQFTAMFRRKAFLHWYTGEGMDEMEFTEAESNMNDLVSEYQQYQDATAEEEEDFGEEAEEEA
T1 sequence (P68363 whole entry): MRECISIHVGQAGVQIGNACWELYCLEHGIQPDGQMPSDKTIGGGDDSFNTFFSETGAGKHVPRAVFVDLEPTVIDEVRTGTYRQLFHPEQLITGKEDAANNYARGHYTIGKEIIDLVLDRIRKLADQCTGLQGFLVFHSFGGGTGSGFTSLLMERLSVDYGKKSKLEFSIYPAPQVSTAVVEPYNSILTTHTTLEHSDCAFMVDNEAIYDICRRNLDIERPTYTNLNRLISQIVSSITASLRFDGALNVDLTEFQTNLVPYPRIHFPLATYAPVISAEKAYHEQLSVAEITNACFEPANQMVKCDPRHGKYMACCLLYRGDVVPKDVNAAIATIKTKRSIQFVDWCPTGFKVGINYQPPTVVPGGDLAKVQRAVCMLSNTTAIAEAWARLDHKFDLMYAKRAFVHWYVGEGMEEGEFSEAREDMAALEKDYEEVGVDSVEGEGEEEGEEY

[6] = test system: MCF-10A normal breast cell; assay: MTT assay, MCF-10A normal cells; type: cell-based, human; settings: Homo sapiens, MCF-10A, 48 h
Outline: as §1

AGS gastric cancer cell = assay: MTT anti-proliferative assay, AGS; type: cell-based, human; settings: for IC50: Homo sapiens, MTT, 48 h
Outline: as §1

HepG2 hepatoma cell = assay: MTT anti-proliferative assay, HepG2; type: cell-based, human; settings: for IC50: Homo sapiens, HepG2, MTT, 48 h, read-out: IC50 HepG-2
Outline: as §1

[7] = test system: BEL-7402 liver cancer cell; assay: MTT anti-proliferative assay, BEL-7402; type: cell-based, human; settings: for IC50: Homo sapiens, Bel-7402, MTT, 48 h
Outline: as §1

A549 lung cancer cell = assay: MTT anti-proliferative assay, A549; type: cell-based, human; settings: for IC50: Homo sapiens, A549, MTT, 48 h
Outline: as §1

[8] = test system: HCT116 colon cancer xenograft; assay: In vivo antitumor activity, colon cancer xenograft; parameters: species or system Nu/Nu nude mice
L-02 cells [9] = assay: Transwell cell migration assay, L-02; type: cell-based, human; settings: 24 h
Description: Aggressive tumors have a strong ability to proliferate and migrate, and in many cases, cell mobility affects cell proliferation. […]
as §2, §3, §4, §5
MTT was purchased from Sigma-Aldrich Co. (St. Louis, MO, USA). […]
as §7, §8, §9, §10, §11

L-02 normal cells = test system: L-02 normal cells; parameters: method as in PMID 27887843, PMID 29516624, PMID 30244610; settings: Fig. 1; cited from earlier work
L-02 cells [10] = assay: Apoptosis by flow cytometry (annexin V-FITC/PI), L-02; type: cell-based, human; settings: 12 h
Description: as §2, §3, §4, §5, §6, §7, §8, §9, §10, §11

Human β-tubulin (TUBB) [11] = molecular target: T1, Human β-tubulin (TUBB); assay: Tubulin polymerization inhibition, ELISA kit, HCT-116 cells; settings: HCT-116, read-out: Tubulin % inhibition
[12] = test system: SGC-7901 early differentiation gastric cancer cell; assay: MTT anti-proliferative assay, SGC-7901; type: cell-based, human; settings: for IC50: Homo sapiens, SGC-7901, MTT, 48 h
Outline: as §1

L-02 normal liver cell = assay: MTT assay, L-02 normal cells; type: cell-based, human; settings: Homo sapiens, 48 h
Outline: as §1

[13] = test system: Raji B lymphoblastoid cell; assay: MTT anti-proliferative assay, Raji; type: cell-based, human; settings: for IC50: Homo sapiens, Raji, MTT, 48 h, read-out: IC50 Raji
Outline: as §1

SMILES | IC50 (MCF-7 breast cancer cell) [µM] | IC50 [1] [µM] | IC50 [2] [µM] | IC50 [3] [µM] | IC50 [4] [µM] | IC50 (AGS gastric cancer cell) [µM] | IC50 (HepG2 hepatoma cell) [µM] | IC50 [7] [µM] | IC50 (A549 lung cancer cell) [µM] | IC50 [12] [µM] | IC50 [13] [µM] | SI (selectivity index), IC50 (MCF-10A)/IC50 (MCF-7) (MCF-7 breast cancer cell) | IC50 (HeLa cancer cells) [µM] | SI (selectivity index), IC50 (L-02)/IC50 (SU-DHL-10) [1] | IC50 (MGC-803 cancer cells) [µM] | SI (selectivity index), IC50 (L-02)/IC50 (HCT-116) [4] | IC50 [6] [µM] | IC50 (L-02 normal cells) [µM] | IC50 (L-02 normal liver cell) [µM] | SI (selectivity index), IC50 (L-02)/IC50 (Raji) [13] | also measured
N#C/C(=C\c1ccc(/C=C/C(=O)c2ccc(Br)cc2)cc1)c1ccc(OC(F)(F)F)cc1 [Compound 8d] | 53.1 ± 7.1 | 7.1 ± 2.6 | > 100 | > 100 | 35.3 ± 6.5 | 31.8 ± 6.1 | > 100 | > 100 | > 100 | > 100 | 3 ± 1 |  |  | > 14.0 |  | > 1.7 | 37.3 ± 4.3 |  | > 100 | > 79.3 | melting point: 145 to 147 °C
COc1cc(OC)cc(/C(C#N)=C/c2ccc(Br)cc2)c1 [Compound 2, (Z)-3-(4-bromophenyl)-2-(3,5-dimethoxyphenyl)acrylonitrile] |  |  |  |  |  |  |  |  |  |  |  |  | 4.2 |  |  |  |  | > 100 |  |  | 
COc1ccc(/C=C\c2cc(OC)c(OC)c(OC)c2)cc1O [CA-4, combretastatin A-4, reference compound] | 0.2 ± 0.1 | 1.1 ± 0.1 | > 100 | 0.06 ± 0.02 | 0.16 ± 0.001 | 3.4 ± 0.01 | > 100 | 2 ± 0.03 | > 100 | 0.3 ± 0.001 | 0.18 ± 0.001 | > 14.6^d |  |  | 0.06 ± 0.01 | > 6.8^c | 3.2 ± 1.2 | 1.1 ± 0.03 | 1.1 ± 0.03 | > 5.8^c | SI (selectivity index), IC50 (L-02)/IC50 (MGC-803) [3]: > 18.3^c; SI (selectivity index), IC50 (L-02)/IC50 (SGC-7901) [12]: > 3.6^c

Further lines, with some results ahead:

IC50 (MCF-7 breast cancer cell) [µM] | IC50 [1] [µM] | IC50 [2] [µM] | IC50 [3] [µM] | IC50 [4] [µM] | IC50 (AGS gastric cancer cell) [µM] | IC50 (HepG2 hepatoma cell) [µM] | IC50 [7] [µM] | IC50 (A549 lung cancer cell) [µM] | IC50 [12] [µM] | IC50 [13] [µM] | SMILES | SI (selectivity index), IC50 (MCF-10A)/IC50 (MCF-7) (MCF-7 breast cancer cell) | IC50 (HeLa cancer cells) [µM] | SI (selectivity index), IC50 (L-02)/IC50 (SU-DHL-10) [1] | IC50 (MGC-803 cancer cells) [µM] | SI (selectivity index), IC50 (L-02)/IC50 (HCT-116) [4] | IC50 [6] [µM] | IC50 (L-02 normal cells) [µM] | IC50 (L-02 normal liver cell) [µM] | SI (selectivity index), IC50 (L-02)/IC50 (Raji) [13] | also measured
0.08 ± 0.01 | 0.18 ± 0.03 | 12.9 ± 0.4 | 0.06 ± 0.01 | 0.03 ± 0.01 | 0.02 ± 0.01 | 0.9 ± 0.03 | 0.09 ± 0.02 | 0.4 ± 0.02 | > 100 | 0.26 ± 0.02 | CC(=O)O[C@H]1C(=O)[C@@]2(C)[C@H]([C@H](OC(=O)c3ccccc3)[C@]3(O)C[C@H](OC(=O)[C@H](O)[C@@H](NC(=O)c4ccccc4)c4ccccc4)C(C)=C1C3(C)C)[C@]1(OC(C)=O)CO[C@@H]1C[C@@H]2O [Taxol, Paclitaxel, reference compound] | > 2.2^d | 13 | > 555^c | 0.06 ± 0.01 | > 3333^c | 0.18 ± 0.02 | > 100 | > 100 | > 384^c | SI (selectivity index), IC50 (L-02)/IC50 (HeLa) [2]: > 7.7^c; percentage of total apoptotic (early and late stage) HCT116 cells (HCT116 cells): 26.8%; inhibition at 0.01 µM (Human β-tubulin (TUBB) [5]): 15 ± 2.65%; inhibition at 0.1 µM (Human β-tubulin (TUBB) [5]): 20.1 ± 5.34%; inhibition at 1 µM (Human β-tubulin (TUBB) [5]): 29.6 ± 4.88%; SI (selectivity index), IC50 (L-02)/IC50 (AGS) (AGS gastric cancer cell): > 5000^c; SI (selectivity index), IC50 (L-02)/IC50 (HepG-2) (HepG2 hepatoma cell): > 106^c; SI (selectivity index), IC50 (L-02)/IC50 (BEL-7402) [7]: > 1111^c; SI (selectivity index), IC50 (L-02)/IC50 (A549) (A549 lung cancer cell): > 227^c; mouse body weight ([8]; 25 mg/kg/day, xenograft mice): decreased significantly; average volume and weight of the tumor versus control group ([8]; 1g2a 12.5, 25, 50 mg/kg, taxol 25 mg/kg, from day 10): significantly lower; also recorded: inhibited the growth of tumors; migration of normal L-02 cells (L-02 cells [9]): almost no migration; apoptosis in normal L-02 cells (L-02 cells [10]): almost no apoptosis; inhibition at 0.01 µM (Human β-tubulin (TUBB) [11]): 19.1 ± 6.27%; inhibition at 0.1 µM (Human β-tubulin (TUBB) [11]): 36.5 ± 6.07%; inhibition at 1 µM (Human β-tubulin (TUBB) [11]): 46 ± 4.89%
> 100 | > 100 | > 100 | > 100 | > 100 | > 100 | > 100 | > 100 | > 100 | > 100 | > 100 | N#C/C(=C\c1ccc(/C=C/C(=O)c2ccccc2)cc1)c1ccc(OC(F)(F)F)cc1 [Compound 8b] |  |  |  |  |  | > 100 |  | > 100 |  | melting point: 155 to 157 °C
